Results from US20230181614A1, “ADMINISTRATION OF CITICOLINE TO IMPROVE COGNITIVE PERFORMANCE, ATTENTIONAL PERFORMANCE, AND MOTOR FUNCTION” (KYOWA HAKKO BIO CO., LTD., priority 2014, published 2023).
Several values for one entry are separate records, joined by “and”; a condition that tells them apart may be missing. Identical values can stand only once.

How the values were obtained:
Format in all cases: in vivo, human
[1] = system: Healthy subjects, ages 13-18; experiment: ADHD Rating Scale (ARS); set-up: scale not given here
Source text: (§1) Study participants were screened by telephone prior to study enrollment. Healthy subjects, ages 13-18, with no significant medical conditions and no history of co-morbid psychiatric disorder, current Axis I or II diagnosis, or previous participation in a pharmacotherapeutic trial, were selected. Use of any psychotropic medication or any previous head injury resulting in loss of consciousness for 5 or more minutes were used as exclusion criteria. While no participant met criteria for a neuropsychiatric disorder at enrollment, clinical assessments were still completed throughout the study to evaluate changes in mood state. In addition, self-reports of sleep habits, lifestyle, and exercise routines were also administered at baseline as well as at each study visit to assess changes in health habits during study participation. Following the completion of Visit 1 assessment, participants were given their 28-day supply of citicoline (250 mg or 500 mg) or placebo, which was randomly assigned. They were instructed to take one capsule a day every day for the next 28 days. Visit 2 occurred fourteen days after Visit 1. At Visit 2, the remaining study pills were counted and participant dosage calendars were checked to ensure compliance with the protocol. Additional neuropsychological measures and clinical assessments were administered during this visit. Participants returned for Visit 3 fourteen days later, on the 28th day of their study participation. The pill bottle and the dosage calendar were collected from each participant. Urine and blood were again obtained. Participants also participated in similar clinical and neuropsychological testing and clinical measures that were given during visit 1. The ARS is a questionnaire assessing the frequency of DSM-IV-TR symptoms of ADHD in children including inattention, impulsivity, and hyperactivity. The scale was administered at each of the three visits to assess presence or absence of ADHD symptoms.

[2] = system: Healthy subjects, ages 13-18; experiment: Wisconsin Card Sorting Task (WCST); settings: Visit 3
Source text: Study participants were screened by telephone prior to study enrollment. Healthy subjects, ages 13-18, with no significant medical conditions and no history of co-morbid psychiatric disorder, current Axis I or II diagnosis, or previous participation in a pharmacotherapeutic trial, were selected. Use of any psychotropic medication or any previous head injury resulting in loss of consciousness for 5 or more minutes were used as exclusion criteria. While no participant met criteria for a neuropsychiatric disorder at enrollment, clinical assessments were still completed throughout the study to evaluate changes in mood state. In addition, self-reports of sleep habits, lifestyle, and exercise routines were also administered at baseline as well as at each study visit to assess changes in health habits during study participation. Following the completion of Visit 1 assessment, participants were given their 28-day supply of citicoline (250 mg or 500 mg) or placebo, which was randomly assigned. They were instructed to take one capsule a day every day for the next 28 days. Visit 2 occurred fourteen days after Visit 1. At Visit 2, the remaining study pills were counted and participant dosage calendars were checked to ensure compliance with the protocol. Additional neuropsychological measures and clinical assessments were administered during this visit. Participants returned for Visit 3 fourteen days later, on the 28th day of their study participation. The pill bottle and the dosage calendar were collected from each participant. Urine and blood were again obtained. Participants also participated in similar clinical and neuropsychological testing and clinical measures that were given during visit 1. The WCST assess a person’s ability to form abstract concepts, utilize feedback, and to shift and maintain set. […] The WCST involves 4 stimulus cards that vary in color, geometric form, and number. Without knowing the criterion, participants are asked to match cards from a deck to the stimulus cards. After the participant places each card, they are told whether they are correct or incorrect and should change the element they are matching based on this feedback. […] The WCST was given on the third visit of the study.

[3] = system: Healthy subjects, ages 13-18; experiment: Stroop Color Word Test; set-up: unit not given here; settings: for Stroop Color Trial V1, Mean / Stroop Difference V1, Mean / Stroop Interference Trial V1, Mean / Stroop Word Trial V1, Mean: Visit 1; for V3-V1 Stroop Color Trial, Mean / V3-V1 Stroop Difference, Mean / V3-V1 Stroop Interference Trial, Mean / V3-V1 Stroop Word Trial, Mean: Visit difference score; for Stroop Color Trial V3, Mean / Stroop Difference V3, Mean / Stroop Interference Trial V3, Mean / Stroop Word Trial V3, Mean: Visit 3
Source text: as §1, with “Stroop measures” for “ARS is a questionnaire assessing”, “ability to inhibit incorrect responses” for “frequency of DSM-IV-TR symptoms of ADHD in children including inattention, impulsivity,”, “to resist interference.” for “hyperactivity.”, “three conditions, Color Naming, Word Reading, and Interference, are designed to establish competing response tendencies. Outcome variables include time to complete each condition, as well as total errors per condition. The Stroop test” for “scale”, “visits.” for “visits to assess presence or absence of ADHD symptoms.”

C[N+](C)(C)CCOP(=O)(O)OP(=O)([O-])OC[C@H]1O[C@@H](n2ccc(N)nc2=O)[C@H](O)[C@@H]1O [citicoline, Cytidine 5′-diphosphocholine]
ARS Impulsivity, Mean ([1]; 250 mg/day, V1 (baseline)): 1.44
ARS Inattention, Mean ([1]; 250 mg/day, V1 (baseline)): 1.30
ARS Impulsivity, Mean ([1]; 250 mg/day, V3 (day 28)): 0.85
ARS Inattention, Mean ([1]; 250 mg/day, V3 (day 28)): 1.56
ARS Impulsivity, Mean ([1]; 250 mg/day, V3-V1): -0.59
ARS Inattention, Mean ([1]; 250 mg/day, V3-V1): 0.26
ARS Impulsivity, Mean ([1]; 500 mg/day, V1 (baseline)): 0.88
ARS Inattention, Mean ([1]; 500 mg/day, V1 (baseline)): 0.50
ARS Impulsivity, Mean ([1]; 500 mg/day, V3 (day 28)): 0.38
ARS Inattention, Mean ([1]; 500 mg/day, V3 (day 28)): 0.38
ARS Inattention, Mean ([1]; 500 mg/day, V3-V1): -0.13
WCST V3 Number of Categories Achieved (Mean) ([2]; 250 mg/day group): 5.69
WCST V3 Number of Trials to Complete Category (Mean) ([2]; 250 mg/day group): 71.15
WCST V3 Number of Trials to Get into Category (Mean) ([2]; 250 mg/day group): 15.19
WCST V3 Total Cards Used (Mean) ([2]; 250 mg/day group): 90.88
WCST V3 Total Errors (Mean) ([2]; 250 mg/day group): 19.73
WCST V3 Total Perseverative Errors (Mean) ([2]; 250 mg/day group): 8.54
WCST V3 Number of Categories Achieved (Mean) ([2]; 500 mg/day group): 5.87
WCST V3 Number of Trials to Complete Category (Mean) ([2]; 500 mg/day group): 70.57
WCST V3 Number of Trials to Get into Category (Mean) ([2]; 500 mg/day group): 13.78
WCST V3 Total Cards Used (Mean) ([2]; 500 mg/day group): 89.57
WCST V3 Total Errors (Mean) ([2]; 500 mg/day group): 19.00
WCST V3 Total Perseverative Errors (Mean) ([2]; 500 mg/day group): 9.13
Stroop Color Trial V1, Mean ([3]; 250 mg/day group): 61.05
Stroop Difference V1, Mean ([3]; 250 mg/day group): 43.53
Stroop Interference Trial V1, Mean ([3]; 250 mg/day group): 91.85
Stroop Word Trial V1, Mean ([3]; 250 mg/day group): 48.32
V3-V1 Stroop Color Trial, Mean ([3]; 250 mg/day group): -7.71
V3-V1 Stroop Difference, Mean ([3]; 250 mg/day group): -17.53
V3-V1 Stroop Interference Trial, Mean ([3]; 250 mg/day group): -19.03
V3-V1 Stroop Word Trial, Mean ([3]; 250 mg/day group): -1.98
Stroop Color Trial V3, Mean ([3]; 250 mg/day group): 53.34 and 53.35
Stroop Difference V3, Mean ([3]; 250 mg/day group): 26.00
Stroop Interference Trial V3, Mean ([3]; 250 mg/day group): 72.82
Stroop Word Trial V3, Mean ([3]; 250 mg/day group): 46.34
Stroop Color Trial V1, Mean ([3]; 500 mg/day group): 60.12
Stroop Difference V1, Mean ([3]; 500 mg/day group): 44.93
Stroop Interference Trial V1, Mean ([3]; 500 mg/day group): 91.62
Stroop Word Trial V1, Mean ([3]; 500 mg/day group): 46.69
V3-V1 Stroop Color Trial, Mean ([3]; 500 mg/day group): -5.77
V3-V1 Stroop Difference, Mean ([3]; 500 mg/day group): -15.55
V3-V1 Stroop Interference Trial, Mean ([3]; 500 mg/day group): -16.95
V3-V1 Stroop Word Trial, Mean ([3]; 500 mg/day group): -1.40
Stroop Color Trial V3, Mean ([3]; 500 mg/day group): 54.35
Stroop Difference V3, Mean ([3]; 500 mg/day group): 29.38
Stroop Interference Trial V3, Mean ([3]; 500 mg/day group): 74.68
Stroop Word Trial V3, Mean ([3]; 500 mg/day group): 45.30
